From patent US9663526B2, “Aminopyrimidinyl compounds” (Pfizer Inc., priority 2014, dated 2017)
Read-outs that look alike come from different tables or passages of the source.

How the values were obtained:
[1] = tested on: interferon alpha signalling (TYK2 and JAK1), STAT3 phosphorylation; test: Human whole blood INFα induced STAT3 phosphorylation assay; format: cell-based; conditions: compound 60 minutes at 37° C., IFNα 5000 U/ml for 15 minutes, pSTAT3 in lymphocyte population by flow cytometry, read-out: HWB IFN alpha IC50;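 further: flow cytometry with anti-pSTAT3 staining, signal as percent-positive × mean fluorescence, baseline from unstimulated wells, 11-point dilution series, IC50 as inhibition of pSTAT3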
[2] = target: recombinant human kinase domain of JAK1 (Homo sapiens (Human), UniProt P23458); test: JAK Caliper enzyme assay at 1 mM ATP (JAK1); format: biochemical; conditions: 1 mM ATP; read-out: IC50 (nM) JAK1;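 further: microfluidic mobility-shift readout of synthetic fluorescent peptide phosphorylation, percent product converted from peak height, inhibition relative to DMSO-only wells as uninhibited baseline, room temperature incubation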
Sequence of recombinant human kinase domain of JAK1 (P23458 875-1153): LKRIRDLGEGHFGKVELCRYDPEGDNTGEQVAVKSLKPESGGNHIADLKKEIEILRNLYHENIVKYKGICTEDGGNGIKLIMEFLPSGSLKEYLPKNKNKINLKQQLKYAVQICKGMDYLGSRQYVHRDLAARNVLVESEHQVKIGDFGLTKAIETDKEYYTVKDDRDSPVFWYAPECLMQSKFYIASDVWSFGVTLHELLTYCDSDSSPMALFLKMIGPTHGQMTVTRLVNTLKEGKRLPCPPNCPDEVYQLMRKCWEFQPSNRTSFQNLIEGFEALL

[3] = target: recombinant human kinase domain of JAK2 (Homo sapiens (Human), UniProt O60674); test: JAK Caliper enzyme assay at 1 mM ATP (JAK2); format: biochemical;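 further: microfluidic mobility-shift read-out of fluorescent synthetic peptide phosphorylation, percent product converted from peak heights, room temperature, DMSO-only wells as uninhibited baseline, inhibition curve fit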
Sequence of recombinant human kinase domain of JAK2 (O60674 849-1124): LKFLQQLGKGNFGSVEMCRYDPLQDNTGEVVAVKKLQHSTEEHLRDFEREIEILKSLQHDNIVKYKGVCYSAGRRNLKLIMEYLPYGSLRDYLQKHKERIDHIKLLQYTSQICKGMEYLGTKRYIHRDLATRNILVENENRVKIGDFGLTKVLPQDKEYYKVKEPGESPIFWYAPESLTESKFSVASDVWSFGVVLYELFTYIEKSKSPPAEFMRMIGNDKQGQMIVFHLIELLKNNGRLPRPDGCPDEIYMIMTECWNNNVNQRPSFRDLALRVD

[4] = target: recombinant human kinase domain of JAK3 (Homo sapiens (Human), UniProt P52333); test: JAK Caliper enzyme assay at 1 mM ATP (JAK3); format: biochemical;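 further: microfluidic mobility-shift readout of synthetic peptide phosphorylation, percent product converted from peak heights, normalized to DMSO-only wells as uninhibited baseline, room temperature incubation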
Sequence of recombinant human kinase domain of JAK3 (P52333 822-1111): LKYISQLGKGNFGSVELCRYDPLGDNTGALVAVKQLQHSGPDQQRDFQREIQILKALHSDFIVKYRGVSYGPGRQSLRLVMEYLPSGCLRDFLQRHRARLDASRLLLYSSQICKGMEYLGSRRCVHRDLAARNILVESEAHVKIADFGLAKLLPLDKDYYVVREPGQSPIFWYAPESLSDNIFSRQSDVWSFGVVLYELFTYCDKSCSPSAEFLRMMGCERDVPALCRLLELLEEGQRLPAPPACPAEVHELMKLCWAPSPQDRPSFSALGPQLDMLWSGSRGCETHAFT

[5] = target: recombinant human kinase domain of TYK2 (Homo sapiens (Human), UniProt P29597); test: JAK Caliper enzyme assay at 1 mM ATP (TYK2); format: biochemical; conditions: 1 mM ATP; read-out: IC50 (nM) TYK2;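 further: microfluidic mobility-shift readout of synthetic peptide phosphorylation by TYK2, tuned to 20–30% conversion at room temperature, reaction stopped with EDTA, DMSO-only wells as uninhibited baseline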
Sequence of recombinant human kinase domain of TYK2 (P29597 897-1176): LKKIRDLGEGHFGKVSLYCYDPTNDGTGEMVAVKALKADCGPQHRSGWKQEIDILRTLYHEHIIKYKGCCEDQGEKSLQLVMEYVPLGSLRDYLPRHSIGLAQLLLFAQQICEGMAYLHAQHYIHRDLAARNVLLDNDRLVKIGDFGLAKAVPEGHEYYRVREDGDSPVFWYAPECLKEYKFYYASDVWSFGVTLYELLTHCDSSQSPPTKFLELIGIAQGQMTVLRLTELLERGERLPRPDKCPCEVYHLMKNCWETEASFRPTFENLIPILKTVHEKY

[6] = 1 mM ATP, read-out: IC50 (nM) JAK3

Row | Compound | IC50 [1] [nM] | IC50 [2] [nM] | IC50 [3] [nM] | IC50 [4, 6] [nM] | IC50 [5] [nM] | IC50 [4] [nM]
1 | Cn1cc(Nc2nccc(N3C[C@H]4CC[C@@H](C3)N4C(=O)[C@@H]3CC3(F)F)n2)cn1 [Example 7, [(1S)-2,2-difluorocyclopropyl][(1R,5S)-3-{2-[(1-methyl-1H-pyrazol-4-yl)amino]pyrimidin-4-yl}-3,8-diazabicyclo[3.2.1]oct-8-yl]methanone] | 30 |  |  |  |  | 
2 | Cc1cc(Nc2nccc(N3C[C@H]4CC[C@@H](C3)N4C(=O)C3CC3)n2)cnc1C(N)=O [Example 15, 5-({4-[(1R,5S)-8-(cyclopropylcarbonyl)-3,8-diazabicyclo[3.2.1]oct-3-yl]pyrimidin-2-yl}amino)-3-methylpyridine-2-carboxamide] | 534 |  |  |  |  | 
3 | O=C([C@@H]1CC1(F)F)N1[C@@H]2CC[C@H]1CN(c1ccnc(Nc3cnc(N4CC[C@@H](O)C4)c(F)c3)n1)C2 [Example 21, [(1S)-2,2-difluorocyclopropyl]{(1R,5S)-3-[2-({5-fluoro-6-[(3R)-3-hydroxypyrrolidin-1-yl]pyridin-3-yl}amino)pyrimidin-4-yl]-3,8-diazabicyclo[3.2.1]oct-8-yl}methanone] | 731 |  |  |  |  | 
4 | Cn1cc(Nc2nccc(N3C[C@H]4CC[C@@H](C3)N4C(=O)Nc3ccc(C(F)(F)F)cn3)n2)cn1 [Example 48, (1R,5S)-3-{2-[(1-methyl-1H-pyrazol-4-yl)amino]pyrimidin-4-yl}-N-[5-(trifluoromethyl)pyridin-2-yl]-3,8-diazabicyclo[3.2.1]octane-8-carboxamide] |  | 300 | 2510 | > 10000 | 964 | 
5 | O=C(C1CC1)N1[C@@H]2CC[C@H]1CN(c1ccnc(Nc3cnsc3)n1)C2 [Example 52, cyclopropyl{(1R,5S)-3-[2-(1,2-thiazol-4-ylamino)pyrimidin-4-yl]-3,8-diazabicyclo[3.2.1]oct-8-yl}methanone] |  | 172 | 1240 | > 10000 | 93 | 
6 | Cn1cc(Nc2nccc(N3C[C@H]4CC[C@@H](C3)N4C[C@H]3CC3(F)F)n2)cn1 [Example 63, 4-[(1R,5S)-8-{[(1R)-2,2-difluorocyclopropyl]methyl}-3,8-diazabicyclo[3.2.1]oct-3-yl]-N-(1-methyl-1H-pyrazol-4-yl)pyrimidin-2-amine] |  | 303 | 856 | > 10000 | 125 | 
7 | CNC(=O)c1ncc(Nc2nccc(N3C[C@H]4CC[C@@H](C3)N4C[C@H]3CC3(F)F)n2)cc1C [Example 68, 5-({4-[(1R,5S)-8-{[(1R)-2,2-difluorocycloproDyl]methyl}-3,8-diazabicyclo[3.2.1]oct-3-yl]pyrimidin-2-yl}amino)-N,3-dimethylpyridine-2-carboxamide] |  | 85 | 188 | > 10000 | 22 | 
8 | Cn1cc(Nc2nccc(N3C[C@H]4CC[C@@H](C3)N4C[C@H]3C[C@@H]3C#N)n2)cn1 [Example 69, (1S,2S)-2-{[(1R,5S)-3-{2-[(1-methyl-1H-pyrazol-4-yl)amino]pyrimidin-4-yl}-3,8-diazabicyclo[3.2.1]oct-8-yl]methyl}cyclopropanecarbonitrile] |  | 1100 | 5700 |  | 811 | > 10000
9 | Cn1cc(Nc2nccc(N3C[C@H]4CC[C@@H](C3)N4C[C@H]3C[C@@H]3C#N)n2)cn1 [Example 70, (1S,2S)-2-{[(1R,5S)-3-{2-[(1-methyl-1H-pyrazol-4-yl)amino]pyrimidin-4-yl}-3,8-diazabicyclo[3.2.1 l]oct-8-yl]methyl}cyclopropanecarbonitrile] |  | 259 | 1540 | > 10000 | 261 | 
10 | CCNC(=O)c1ccc(Nc2ncc(F)c(N3C[C@H]4CC[C@@H](C3)N4C(=O)OC(C)(C)C)n2)cc1C [Example 73, tert-butyl 3-(2-{[4-(ethylcarbamoyl)-3-methylphenyl]amino}-5-fluoropyrimidin-4-yl)-3,8-diazabicyclo[3.2.1]octane-8-carboxylate] |  | 260 | 170 | 1770 | 17 | 
11 | Cn1cc(Nc2nccc(N3C[C@H]4CC[C@@H](C3)N4C(N)=O)n2)cn1 [Example 76, (1R,5S)-3-{2-[(1-methyl-1H-pyrazol-4-yl)amino]pyrimidin-4-yl}-3,8-diazabicyclo[3.2.1]octane-8-carboxamide] |  | 537 | 1480 | > 10000 | 662 | 
12 | Cn1cc(Nc2nccc(N3C[C@H]4CC[C@@H](C3)N4S(C)(=O)=O)n2)cn1 [Example 77, N-(1-methyl-1H-pyrazol-4-yl)-4-[(1R,5S)-8-(methylsulfonyl)-3,8-diazabicyclo[3.2.1]oct-3-yl]pyrimidin-2-amine] |  | 380 | 653 | > 10000 | 256 | 
13 | Cn1cc(Nc2nccc(N3C[C@H]4CC[C@@H](C3)N4c3ncc(C#N)o3)n2)cn1 [Example 78, 2-[(1R,5S)-3-{2-[(1-methyl-1H-pyrazol-4-yl)amino]pyrimidin-4-yl}-3,8-diazabicyclo[3.2.1]oct-8-yl]-1,3-oxazole-5-carbonitrile] |  | 68 | 461 | > 10000 | 63 | 
14 | CC(CC#N)N1[C@@H]2CC[C@H]1CN(c1ccnc(Nc3cnn(C)c3)n1)C2 (stereo partly drawn) [Example 81] |  | 405 | 603 | > 10000 | 199 | 
15 | CC(CC#N)N1[C@@H]2CC[C@H]1CN(c1ccnc(Nc3cn[nH]c3)n1)C2 (stereo partly drawn) [Example 82, 3-{(1R,5S)-3-[2-(1H-pyrazol-4-ylamino)pyrimidin-4-yl]-3,8-diazabicyclo[3.2.1]oct-8-yl}butanenitrile] |  | 135 | 473 | > 10000 | 79 | 
16 | CC(C)NC(=O)N1[C@@H]2CC[C@H]1CN(c1ccnc(Nc3cnn(C)c3)n1)C2 [Example 88, (1R,5S)-3-{2-[(1-methyl-1H-pyrazol-4-yl)amino]pyrimidin-4-yl}-N-(propan-2-yl)-3,8-diazabicyclo[3.2.1]octane-8-carboxamide] |  | 165 | 894 | > 10000 | 110 | 
17 | Cn1cc(Nc2nccc(N3C[C@H]4CC[C@@H](C3)N4c3cc(C#N)ccn3)n2)cn1 [Example 92, 2-[(1R,5S)-3-{2-[(1-methyl-1H-pyrazol-4-yl)amino]pyrimidin-4-yl}-3,8-diazabicyclo[3.2.1]oct-8-yl]pyridine-4-carbonitrile] |  | 52 | 264 | 6560 | 62 | 
18 | C[C@@H]1[C@@H]2CN(c3nc(Nc4cnn(C5COC5)c4)ncc3F)C[C@]12NC(=O)[C@@H]1CC1(F)F [Example 99, (1S)-2,2-difluoro-N-[(1S,5R,6R)-3-(5-fluoro-2-{[1-(oxetan-3-yl)-1H-pyrazol-4-yl]amino}pyrimidin-4-yl)-6-methyl-3-azabicyclo[3.1.0]hex-1-yl]cyclopropanecarboxamide] |  | 65 | 391 | 4940 | 26 | 
19 | CNC(=O)c1ncc(Nc2ncc(F)c(N3C[C@H]4[C@@H](C)[C@@]4(NC(=O)C4CC4)C3)n2)cc1C [Example 100, 5-[(4-{(1S,5R,6R)-1-[(cyclopropylcarbonyl)amino]-6-methyl-3-azabicyclo[3.1.0]hex-3-yl}-5-fluoropyrimidin-2-yl)amino]-N,3-dimethylpyridine-2-carboxamide] |  | 965 | 4250 | > 10000 | 97 | 
20 | CNC(=O)c1ncc(Nc2ncc(F)c(N3C[C@@H]4[C@H](C)[C@]4(NC(=O)C4CC4)C3)n2)cc1C [Example 101, 5-[(4-{(1R,5S,6S)-1-[(cyclopropylcarbonyl)amino]-6-methyl-3-azabicyclo[3.1.0]hex-3-yl}-5-fluoropyrimidin-2-yl)amino]-N,3-dimethylpyridine-2-carboxamide] |  | 1880 | 2910 | > 10000 | 663 | 
21 | C[C@@H]1[C@@H]2CN(c3nc(Nc4cnc(CO)c(Cl)c4)ncc3F)C[C@]12NC(=O)C1CC1 [Example 105, N-[(1S,5R,6R)-3-(2-{[5-chloro-6-(hydroxymethyl)pyridin-3-yl]amino}-5-fluoropyrimidin-4-yl)-6-methyl-3-azabicyclo[3.1.0]hex-1-yl]cyclopropanecarboxamide] |  | 1570 | 6100 | > 10000 | 152 | 
22 | O=C(N[C@@]12C[C@@H]1CN(c1nc(Nc3cnn(CCO)c3)ncc1Cl)C2)C1CC1 [Example 107, N-[(1S,5R)-3-(5-chloro-2-{[1-(2-hydroxyethyl)-1H-pyrazol-4-yl]amino}pyrimidin-4-yl)-3-azabicyclo[3.1.0]hex-1-yl]cyclopropanecarboxamide] |  | 19 | 177 | 1880 | 21 | 
23 | O=C(N[C@]12C[C@H]1CN(c1nc(Nc3cnn(CCO)c3)ncc1Cl)C2)C1CC1 [Example 108, N-[(1R,5S)-3-(5-chloro-2-{[1-(2-hydroxyethyl)-1H-pyrazol-4-yl]amino}pyrimidin-4-yl)-3-azabicyclo[3.1.0]hex-1-yl]cyclopropanecarboxamide] |  | 323 | 1490 | 3960 | 675 | 
24 | CCNC(=O)c1ccc(Nc2ncc(F)c(N3CC4CC(C3)N4C(=O)C(C)(F)F)n2)cc1C [Example 111, 4-({4-[6-(2,2-difluoropropanoyl)-3,6-diazabicyclo[3.1.1]hept-3-yl]-5-fluoropyrimidin-2-yl}amino)-N-ethyl-2-methylbenzamide] |  | 1690 | 2210 | 4870 | 56 | 
